Patent US20130040291A1, “Detection and Quantification of Cellular Stress Response Resolution Pathway Expression and Functionality and the Effects of Agents or Conditions Thereupon” (priority 2011, published 2013)

Tests used:
CDNR4 cells [1] = test: Determination of the SRID-50% level of 6-TG (calibrated stress conditions); type: cell-based, murine
Protocol: The calibrated stress conditions and the SRID-x % level are determined ideally using parental, control, or vehicle-exposed cells. This portion of the assay requires that several variables, including cell plating density, calibrated stress conditions level, and duration of stress conditions exposure be optimized simultaneously. These variables are interdependent such that each affects the outcome of the other, thereby making this portion of the assay one of the most critical. To achieve high sensitivity for detection of assay endpoints, it is important that the maximum number of cells be evaluated; however, optimal calibrated stress conditions are achieved at relatively low cell plating densities. In addition, cell plating densities and the SKID-x % level of stress inducing agent chosen for use in the assay must be such that fewer than one positive endpoint per well occurs in the assay. Using cell survival as an example, if multiple surviving cell clones are identified in the same well(s) during an experiment, then the cell plating density must be reduced and/or the SRID-x % level must be increased so that the frequency of occurrence of surviving clones is reduced to less than one per well. Thus, optimization of these variables is necessary.
Pilot studies that evaluate a range of cell plating densities and a range of calibrated stress conditions levels for the stress inducing agent of choice are used and are applied to untreated, control or parental cells. It is advisable to use a low plating density that results in rapid expression of stress resolution pathways (within 3 to 4 days where possible), or as quickly as possible after calibrated stress conditions exposure. In spite of potentially significant differences between cells of different types from different tissues and from different species, preliminary results from the SR assay support the conclusion that the optimal plating density for many cell types falls within a predictable range. […] These values can serve as starting points for empirical determination of the optimal cell plating density for the cells of interest to be used in the assay.
After estimating the optimal cell plating density, dose response curves are generated for the calibrated stress conditions agent of interest. For experiments in which cell survival is the phenotype of interest, work with the assay completed to date supports the conclusion that calibrated stress conditions levels that reduce expression of pro-survival pathways to a level that results in survival of one or fewer clones in 50% of the wells of a 96 well plate (defined as the SRID-50%) is the optimal level for assessment of damage avoidance pro-survival pathways. Use of these levels also results in a sufficiently robust expression of damage tolerance paths to make it possible to evaluate differences or changes in expression of these pathways between cell types and/or between differing exogenous exposures. Because cell plating density and level of calibrated stress inducing agent are inter-dependent, it may be necessary to perform several pilot studies using differing cell plating densities and a range of stress-response inducing levels to find the optimal combination of use with the cell type of interest in the assay.
There are two limits associated with Poisson distribution principles that must be considered in selecting the SRID-x % level of stress inducing agent. First, stress induction levels that result in a response frequency, for the response type of interest, that is near or equal to 100% of the sites being evaluated should be avoided and the same considerations are true for stress induction levels resulting in responses frequencies near or equal to 0%. The SR assay cannot accurately quantify response frequencies near 100% or near 0%, and this limitation forms the one of the factors affecting the selection of the SRID-x % level. […]

CDNR4 cells [2] = test: Midway cloning efficiency (mCE), pre-calibrated stress conditions pro-survival pathway function; type: cell-based, murine; details: ENU 20 micrograms/ml 1 hour, 2 weeks (day 14) post-exposure
From the text: mCE procedure #2 for cells that grow attached to a surface or basement membrane and/or that have the following growth characteristics when grown in tissue culture. The second method is novel and is recommended for use with epithelial cells, cells that form tight junctions, cells that produce mucinous material during in vitro cell culture, and/or cells that attach to a basement membrane. The latter characteristics are typical of epithelial cells but are not unique to this cell type alone.
This procedure is used to obtain an accurate cell count in vials of very dilute cells that are used for plating cloning efficiency plates. […]
For this procedure, the cell aliquot that was set aside during the initial cell counting is divided into 2 equal groups and diluted as follows. […] Approximately 12 to 15 hours later, the average number of cells per milliliter on the 6 or 12 well plates for both groups A and B is determined using light microscopy to visualize and count the cells. […] Viable cells are counted; dead cells or cell fragments are not counted. […] The final cloning efficiency is determined using the formula presented above (see phase 3 step 5). […]

Question: How did the “SRID-50% of ENU-exposed cells” value (CDNR4 cells [1]; ENU 20 micrograms/ml 1 hour, 2 weeks earlier, 600 cells per well, stress agent 6-TG) turn out when `CCN(N=O)C(N)=O` [ENU, ethylnitrosourea] was run?
Answer: The value was 2.5 micrograms/ml.

Question: And the “reduction in the functionality of pro-survival cellular stress response pathways” value (CDNR4 cells [1]; ENU-exposed vs unexposed CDNR4 cells, from SRID-50% levels)?
Answer: Its value is 20 fold.

Question: And the “SRID-50% level of ENU-exposed CDNR4 cells” value (CDNR4 cells [1]; pre-exposure 20 micrograms ENU 1 hour, tested two weeks later, 6-TG for 4 days)?
Answer: Its value is 2.5 micrograms 6-TG.

Question: And the “mCE (midway cloning efficiency)” value (CDNR4 cells [2])?
Answer: The value was 34.2%.
